# The NIST ThermoML archive (doi:10.1021/je0256481)
# ± gives the expanded uncertainty stated by the source.
# Assay: activity coefficient (dimensionless); of the first substance listed, at infinite dilution; xn = mol fraction of the nth substance listed
# Conditions: Liquid, x1 = 0
Compound,activity coefficient (313.15 K),activity coefficient (323.15 K),activity coefficient (298.15 K)
C1CCCCCCC1 [cyclooctane] + CCCCCCn1cc[n+](C)c1.F[P-](F)(F)(F)(F)F,18.7 ± 1.7,12.2 ± 1.1,–
CCCCCCCC [octane] + CCCCCCn1cc[n+](C)c1.F[P-](F)(F)(F)(F)F,37.1 ± 3.5,32 ± 3,44.7 ± 4.2
C=CCCCCCC [oct-1-ene] + CCCCCCn1cc[n+](C)c1.F[P-](F)(F)(F)(F)F,19.5 ± 1.8,18 ± 1.7,21.9 ± 2
C#CCCCCC [1-heptyne] + CCCCCCn1cc[n+](C)c1.F[P-](F)(F)(F)(F)F,4.03 ± 0.37,4.07 ± 0.37,–
CCCCCCC [heptane] + CCCCCCn1cc[n+](C)c1.F[P-](F)(F)(F)(F)F,25.7 ± 2.4,22.2 ± 2,30.6 ± 2.8
C=CCCCC [hex-1-ene] + CCCCCCn1cc[n+](C)c1.F[P-](F)(F)(F)(F)F,9.09 ± 0.83,7.88 ± 0.72,10.4 ± 0.96
C#CCCCC [1-hexyne] + CCCCCCn1cc[n+](C)c1.F[P-](F)(F)(F)(F)F,2.78 ± 0.25,2.82 ± 0.26,–
CCCCC [pentane] + CCCCCCn1cc[n+](C)c1.F[P-](F)(F)(F)(F)F,12.2 ± 2.4,8.48 ± 1.4,13.7 ± 2.7
CCCCCC [hexane] + CCCCCCn1cc[n+](C)c1.F[P-](F)(F)(F)(F)F,19.2 ± 4.4,15 ± 3,22.5 ± 5.4
C1CCCCCC1 [cycloheptane] + CCCCCCn1cc[n+](C)c1.F[P-](F)(F)(F)(F)F,14.2 ± 1.3,11.8 ± 1.1,–
c1ccccc1 [benzene] + CCCCCCn1cc[n+](C)c1.F[P-](F)(F)(F)(F)F,1.04 ± 0.06,1.07 ± 0.06,1.03 ± 0.05
C1CCCC1 [cyclopentane] + CCCCCCn1cc[n+](C)c1.F[P-](F)(F)(F)(F)F,7.21 ± 0.66,6.08 ± 0.56,8.53 ± 0.78
C#CCCCCCC [1-octyne] + CCCCCCn1cc[n+](C)c1.F[P-](F)(F)(F)(F)F,5.86 ± 0.54,5.81 ± 0.53,–
C=CCCCCC [1-heptene] + CCCCCCn1cc[n+](C)c1.F[P-](F)(F)(F)(F)F,13.8 ± 1.3,12.4 ± 1.1,15.3 ± 1.4
C1CCCCC1 [cyclohexane] + CCCCCCn1cc[n+](C)c1.F[P-](F)(F)(F)(F)F,10.6 ± 0.97,9.38 ± 0.86,12.7 ± 1.2
CO [methanol] + CCCCCCn1cc[n+](C)c1.F[P-](F)(F)(F)(F)F,1.6 ± 0.13,1.44 ± 0.11,1.94 ± 0.17
